Reference: US10028990B2, “Functional foods and beverages with synergistic properties to promote homeostasis” (JUSTBIO INC., priority 2011, dated 2018)
Residues, ends and D or L forms follow the SMILES beside them.

Experiments:
[1] = ORAC (Oxygen Radical Absorbance Capacity) test; conditions: FIG. 46; combined with maple syrup
Description: The antioxidant capacity of formulations and beverages was determined with the ORAC (Oxygen Radical Absorbance Capacity) test. ORAC assays were performed as previously described (Prior et al, 2005). […] These free radicals are generated by the exposition of flurorescein to AAPH. […] The oxidation process is a kinetic reaction that is measured fluorescence levels (excitation: 485 nm, emission: 528 nm) over time using a Synergy HT (Biotek) microplate reader. Area under the curves (AUC) from each compound tested are calculated and compared to the blank and the control of reference the vitamin E analog 6-Hydroxy-2,5,7,8 Teramethylchromane-2-carboxylic acid (Trolox). ORAC values are expressed as μmol of Trolox equivalent per ml (μmol TE/ml) of compound tested.

[2] = tested on: SH-SY5Y neurons; test: ROS production by dopaminergic SH-SY5Y neurons exposed to supernatant of Cal27 cells; type: cell-based, Human
Description: (§1) Cellular ROS levels were obtained by measuring the oxidation of CM-H2DCFDA (5-(and 6)-chlromethyl-20,70-dichlorodihydrofluresceindiacetate; Invitrogen) a cell-permeant indicator. Cal27, HEK 293 and SH-SY5Y were plated in 96 well plates at a cell density of 25000 cells per well. Cells were treated for 1 hour with 5 μM CM-H2DCFDA. After removing the CDFDA solution, cells were treated with various adaptogenic formulations prepared with ROS buffer (HBSS containing 2% FBS). After 30 min of exposure with samples, a first reading was taken using the synergy HT (Biotek) plate reader. Various concentrations of AAPH (100 mM, 40 mM, 16 mM, 6.4 mM and 2.5 mM) were then added, and readings (excitation: 485 nm, emission: 530 nm) were taken every 30 minutes for 2 hours. The fluorescence intensity is an indicator of H2O2 intracellular level so values are expressed in Relative Fluorescence Unit (RFU).
This assay mimics the impact of mucosal cells on subepithelial neuronal cells.

[3] = target: T1, TLR2 (Homo sapiens, UniProt O60603+Q15399); test: TLR2 activation with Pam3Cys in Cal27 cells under low or high oxidative stress; type: cell-based; conditions: FIG. 34, Pam3Cys 500 ng/ml
T1 construct: TLR2-dependent ROS production in Cal27 exposed for 30 minutes to various concentrations of AAPH; host or cells: CAL27
T1 sequence (O60603 21-784): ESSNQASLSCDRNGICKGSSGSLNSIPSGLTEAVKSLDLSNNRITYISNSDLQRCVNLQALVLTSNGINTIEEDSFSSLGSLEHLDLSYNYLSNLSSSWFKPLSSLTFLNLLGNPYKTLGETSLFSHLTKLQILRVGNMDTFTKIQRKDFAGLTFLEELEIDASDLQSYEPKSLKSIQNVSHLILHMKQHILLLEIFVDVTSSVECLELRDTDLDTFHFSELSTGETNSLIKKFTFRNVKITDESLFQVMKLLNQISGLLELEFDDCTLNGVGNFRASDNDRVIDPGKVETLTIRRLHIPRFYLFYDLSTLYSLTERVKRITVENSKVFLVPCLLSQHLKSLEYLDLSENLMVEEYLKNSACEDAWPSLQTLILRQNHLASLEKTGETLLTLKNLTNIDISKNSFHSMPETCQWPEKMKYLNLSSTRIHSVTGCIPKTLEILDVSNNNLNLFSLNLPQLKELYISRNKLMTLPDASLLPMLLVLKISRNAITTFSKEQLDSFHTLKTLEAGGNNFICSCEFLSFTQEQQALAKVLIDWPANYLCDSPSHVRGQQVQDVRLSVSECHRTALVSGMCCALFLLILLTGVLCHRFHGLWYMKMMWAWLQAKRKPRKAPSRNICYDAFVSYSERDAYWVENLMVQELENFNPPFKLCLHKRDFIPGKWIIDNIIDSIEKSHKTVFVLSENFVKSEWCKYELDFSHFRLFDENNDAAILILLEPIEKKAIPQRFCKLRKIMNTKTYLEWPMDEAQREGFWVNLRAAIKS
T1 sequence (Q15399 25-786): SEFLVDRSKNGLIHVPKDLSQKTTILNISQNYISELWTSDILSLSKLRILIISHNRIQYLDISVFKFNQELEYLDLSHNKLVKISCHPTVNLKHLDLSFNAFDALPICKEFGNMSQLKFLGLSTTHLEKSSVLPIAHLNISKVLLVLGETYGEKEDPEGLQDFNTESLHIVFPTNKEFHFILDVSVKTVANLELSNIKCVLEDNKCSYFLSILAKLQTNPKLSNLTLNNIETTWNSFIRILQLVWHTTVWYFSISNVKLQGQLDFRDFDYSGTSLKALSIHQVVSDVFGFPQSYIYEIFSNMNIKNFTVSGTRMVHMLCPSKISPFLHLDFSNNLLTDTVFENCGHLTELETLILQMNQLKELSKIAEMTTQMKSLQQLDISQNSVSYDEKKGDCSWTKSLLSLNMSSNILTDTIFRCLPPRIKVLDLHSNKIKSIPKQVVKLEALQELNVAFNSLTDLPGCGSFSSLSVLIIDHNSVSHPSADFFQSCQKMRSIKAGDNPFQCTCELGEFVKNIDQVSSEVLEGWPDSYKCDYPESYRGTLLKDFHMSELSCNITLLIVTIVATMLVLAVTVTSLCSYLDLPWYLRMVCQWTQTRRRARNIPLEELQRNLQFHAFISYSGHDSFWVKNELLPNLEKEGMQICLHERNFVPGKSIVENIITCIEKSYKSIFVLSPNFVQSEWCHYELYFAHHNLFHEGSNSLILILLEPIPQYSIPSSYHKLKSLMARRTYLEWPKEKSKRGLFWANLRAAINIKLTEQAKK
Description: Cell lines (CAL27, SH-SY5Y) used for this assay were plated in plaque assays at a density of 50,000-100,000 cells per well. Colorimetric MTT (3-(4,5-dimethylthiazol-2-yl)-2,5-diphenyl tetrazolium bromide) was dissolved in HBSS buffer to obtain a final concentration of 0.5 mg/ml per well. Cell plates were incubated for 2 hours at 37° C. Conditioned medium was then removed, and acid-isopropanol (0.04N HCl in isopropanol) was added to all wells. HCL was used as positive control to induce cell death. Plates were read at 530 nm/630 nm in a Synergy Biotek machine. […] This method is an adaptation of a previously described assay (Mossman, 1983).
All cell lines were obtained from the American Type Culture Collection (ATCC, Manassas, US). In some experiments, cells were transferred to a 96 wells plate and treated with different concentration of TLR2 agonist synthetic triacylated lipoprotein PAM3CSK4 (InvivoGen) starting by 500 ng/ml final concentration to activate TLR2.
as §1
ATP intracellular levels were measured from whole cell lysates obtained through a freeze-thaw cycle, whereas ATP secreted from cells were measured from conditioned cell culture supernatants. Both intracellular and secreted ATP using measured using an ATP determination kit purchased from Invitrogen (Molecular Probes). ATP levels were detected at luminescence 560 nm. ATP levels were normalized to untreated control and were expressed as % ATP levels.

C=C1C[C@@]23CC[C@H]4[C@@](C)(CCC[C@@]4(C)C(=O)O[C@@H]4O[C@H](CO)[C@@H](O)[C@H](O)[C@H]4O)[C@@H]2CC[C@]1(O[C@@H]1O[C@H](CO)[C@@H](O)[C@H](O[C@@H]2O[C@H](CO)[C@@H](O)[C@H](O)[C@H]2O)[C@H]1O[C@@H]1O[C@H](CO)[C@@H](O)[C@H](O)[C@H]1O)C3 [Rebaudiside A, Rebaudioside A]
synergy in combination with maple syrup (ORAC versus sum of SE+ingredient) [1]: act in synergy

COC(=O)[C@H](Cc1ccccc1)NC(=O)[C@@H](N)CC(=O)O [aspartame] (H-Asp-Phe-OMe)
synergy in combination with maple syrup (ORAC versus sum of SE+ingredient) [1]: does not create this synergy

C=C1C[C@@]23CC[C@H]4[C@@](C)(CCC[C@@]4(C)C(=O)O[C@@H]4O[C@H](CO)[C@@H](O)[C@H](O)[C@H]4O)[C@@H]2CC[C@]1(O[C@@H]1O[C@H](CO)[C@@H](O)[C@H](O)[C@H]1O[C@@H]1O[C@H](CO)[C@@H](O)[C@H](O)[C@H]1O)C3 [stevioside]
synergy in combination with maple syrup (ORAC versus sum of SE+ingredient) [1]: act in synergy

OC[C@H]1O[C@H](O[C@]2(CCl)O[C@H](CCl)[C@@H](O)[C@@H]2O)[C@H](O)[C@@H](O)[C@H]1Cl [sucralose]
synergy in combination with maple syrup (ORAC versus sum of SE+ingredient) [1]: does not create this synergy

Pam3Cys
ROS production by dopaminergic neurons upon TLR2 activation of Cal27 cells ([2]; FIG. 37, 50 ng/ml of Pam3Cys): reduce ROS production
neuroprotective role upon TLR2 activation of Cal27 cells ([2]; higher dose of Pam3Cys (250 or 500 ng/ml)): did not have this neuroprotective role
impact on ROS production ([3]; 6.4 mM and 16 mM AAPH): no significant impact
impact on mitochondrial activity ([3]; 6.4 mM and 16 mM AAPH): no significant impact
ATP secretion ([3]; cells without AAPH): slightly increased ATP secretion
ATP production ([3]; high oxidative stress (16 mM AAPH)): increases ATP production
